Results reported in patent US11826358B2, “Locally-induced adipose tissue browning by microneedle patch for obesity treatment” (NORTH CAROLINA STATE UNIVERSITY, priority 2017, dated 2023).

Tests used:
3T3-L1 adipocytes = assay: Browning in fully differentiated 3T3-L1 adipocytes (Q-PCR); type: cell-based
Description: To validate the efficiency of Rosi NPs, an in vitro adipocyte model PgKO-PPARγ1 was used in which the reconstitution of a shorter form of PPARγ (γ1) in Ppar^−/− mouse embryonic fibroblast (MEF) rescues adipocyte differentiation only in the presence of exogenous Thiazolidinedione class of ligand (e.g. Rosi). […] In addition to adipogenic potential, the browning capacity of Rosi NPs was also compared. In fully differentiated 3T3-L1 adipocytes, Rosi NPs behaved the same as nude Rosi to up-regulate brown adipocyte markers Elovl3 and Cidea as well as to repress white adipocyte genes Resistin and Adipsin (FIG. 2g). Therefore, the disclosed nanoparticalization strategy can sustain a constant release of Rosi at physiological levels of glucose without affecting its efficiency.
RNA was extracted from tissues or cells by combining TriZol reagent and NucleoSpin RNA kit with DNase I digestion (Macherey-Nagel), following the manufacturer's instructions. 1 μg total RNA was used to synthesize cDNA by using the High-capacity cDNA Reverse Transcription kit (Applied Biosystems). Quantitative real-time PCR (Q-PCR) were performed on a Bio-Rad CFX96 Real-Time PCR platform by using the GoTaq qPCR Master Mix (Promega). Relative gene expressions were calculated by using ΔΔCt method with Cyclophilin A (cultured cells) or RPL23 (tissues) as the reference gene.

PgKO-PPARγ1 = assay: Adipogenesis in PgKO-PPARγ1 MEF adipocyte model (aP2, Perilipin Q-PCR); type: cell-based, mouse

Compound: CN(CCOc1ccc(CC2SC(=O)NC2=O)cc1)c1ccccn1 (racemic) [nude Rosi, (RS)-5-[4-(2-[methyl(pyridin-2-yl)amino]ethoxy)benzyl]thiazolidine-2,4-dione]
- brown adipocyte markers Elovl3 and Cidea expression (3T3-L1 adipocytes): up-regulate
- white adipocyte genes Resistin and Adipsin expression (3T3-L1 adipocytes): repress
- adipocyte formation (induction of aP2 and Perilipin) (PgKO-PPARγ1): induce adipocyte formation
